Earlier results, collected in US12144787B2, “Method of treating patients with a mutation in cyclin-dependent kinase-like 5 (CDKL5)” (ZOGENIX INTERNATIONAL LIMITED, priority 2019, dated 2024).

Key:
[1] = test system: self-induced photosensitive seizures; conditions: four cases; patients staring into bright lights or the sun
[2] = test system: refractory epilepsy with self-induced seizures; conditions: children with refractory epilepsy; dose 0.5 to 1 mg/kg/day
[3] = test system: compulsive respiratory stereotypies; conditions: open label, 8 children; subset of patients
[4] = test system: pattern sensitivity-induced seizures; conditions: one child, seizures resistant to anticonvulsive treatment

Structure (SMILES): CCNC(C)Cc1cccc(C(F)(F)F)c1 (racemic) [fenfluramine, (RS)—N-ethyl-1-[3-(trifluoromethyl)phenyl]propan-2-amine]
- response of self-induced photosensitive seizures to treatment [1]: responded to treatment
- number of seizures experienced by the patients [2]: reduction in the number of seizures
- effect on compulsive respiratory stereotypies [3]: some beneficial effects
- effect on self-induced seizures [4]: successfully terminated these self-induced seizures
